Measurements published in article PMC11285368, “Chasing Red Herrings: Palladium Metal Salt Impurities Feigning KRAS Activity in Biochemical Assays” (Journal of Medicinal Chemistry, 2024).

How the values were obtained:
Format in all cases: biochemical
off-target = test: SOS1 AlphaScreen, Target #2
Description: (§1) Metal salt solutions for the metal ion interference set (MIIS) were prepared as 10 mM stock solutions in DMSO (see Table 3). All metal salts used have been purchased at highest industrial grade.

FKBP51 = target: T1, FKBP51 (Homo sapiens, UniProt Q13451); test: FKBP51 AlphaScreen, Target #1
T1 sequence (Q13451 1-457): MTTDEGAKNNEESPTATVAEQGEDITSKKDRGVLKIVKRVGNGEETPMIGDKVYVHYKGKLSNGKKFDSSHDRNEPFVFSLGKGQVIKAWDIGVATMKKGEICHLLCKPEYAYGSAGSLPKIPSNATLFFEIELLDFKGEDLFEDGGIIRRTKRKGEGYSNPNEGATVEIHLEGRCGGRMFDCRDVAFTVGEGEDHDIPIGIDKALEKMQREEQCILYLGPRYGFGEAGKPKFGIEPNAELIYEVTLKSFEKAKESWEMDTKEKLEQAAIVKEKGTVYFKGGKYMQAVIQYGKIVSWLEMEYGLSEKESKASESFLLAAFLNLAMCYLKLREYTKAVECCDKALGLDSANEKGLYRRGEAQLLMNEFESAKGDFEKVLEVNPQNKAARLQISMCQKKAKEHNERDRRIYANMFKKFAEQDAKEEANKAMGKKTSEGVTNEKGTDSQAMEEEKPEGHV
Description: as §1

LSD1 = LSD1 (Homo sapiens, UniProt O60341); test: LSD1 DELFIA; details: read-out: Target #1 IC50
Description: as §1

off target (ext.) = test: WRN ADP-Glo, Target #4
Description: as §1

SOS1 = target: T2, SOS1 (Homo sapiens, UniProt Q07889); test: SOS1 TR-FRET; details: read-out: Target #1 IC50
T2 sequence (Q07889 1-1333): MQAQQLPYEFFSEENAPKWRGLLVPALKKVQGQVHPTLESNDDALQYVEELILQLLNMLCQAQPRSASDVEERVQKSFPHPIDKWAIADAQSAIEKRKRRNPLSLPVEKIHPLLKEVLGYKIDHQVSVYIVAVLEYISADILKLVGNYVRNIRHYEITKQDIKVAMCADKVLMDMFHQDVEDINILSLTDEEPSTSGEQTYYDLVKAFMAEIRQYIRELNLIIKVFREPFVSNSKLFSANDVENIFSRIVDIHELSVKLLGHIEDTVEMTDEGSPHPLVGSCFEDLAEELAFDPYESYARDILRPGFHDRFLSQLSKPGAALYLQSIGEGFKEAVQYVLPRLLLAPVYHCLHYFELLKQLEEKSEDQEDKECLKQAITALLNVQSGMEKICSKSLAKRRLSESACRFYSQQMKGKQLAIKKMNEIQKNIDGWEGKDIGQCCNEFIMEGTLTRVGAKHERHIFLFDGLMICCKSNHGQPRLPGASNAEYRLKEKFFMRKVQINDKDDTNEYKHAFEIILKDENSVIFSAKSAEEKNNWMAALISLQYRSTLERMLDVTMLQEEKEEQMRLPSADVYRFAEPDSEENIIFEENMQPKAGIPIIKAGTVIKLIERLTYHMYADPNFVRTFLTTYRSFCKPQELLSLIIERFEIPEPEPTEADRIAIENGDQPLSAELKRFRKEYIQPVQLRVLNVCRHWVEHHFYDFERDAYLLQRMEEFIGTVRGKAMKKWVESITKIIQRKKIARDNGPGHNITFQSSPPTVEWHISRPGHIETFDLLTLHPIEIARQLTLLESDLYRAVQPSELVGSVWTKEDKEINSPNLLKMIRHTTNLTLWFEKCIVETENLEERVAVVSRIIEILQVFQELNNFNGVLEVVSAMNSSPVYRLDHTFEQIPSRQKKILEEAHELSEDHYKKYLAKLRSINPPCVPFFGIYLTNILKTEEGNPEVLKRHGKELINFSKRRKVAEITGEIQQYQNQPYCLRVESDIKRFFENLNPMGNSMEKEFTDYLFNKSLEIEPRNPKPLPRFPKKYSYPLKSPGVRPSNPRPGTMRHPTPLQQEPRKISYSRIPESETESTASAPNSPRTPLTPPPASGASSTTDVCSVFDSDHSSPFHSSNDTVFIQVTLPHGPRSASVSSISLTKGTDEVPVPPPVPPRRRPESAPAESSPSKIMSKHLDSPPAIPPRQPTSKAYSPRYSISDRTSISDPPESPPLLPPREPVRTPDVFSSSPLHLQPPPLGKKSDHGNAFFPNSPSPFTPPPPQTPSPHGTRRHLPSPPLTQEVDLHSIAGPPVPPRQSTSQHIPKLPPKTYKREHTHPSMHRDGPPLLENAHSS
Description: as §1

KRAS GTP = KRAS GTP (Homo sapiens, UniProt P01116, G12D); test: KRAS AlphaScreen, Target #2
Description: as §1

off target [1] = test: FKBP51 AlphaScreen, Target #3
Description: as §1

WRN (int.) = WRN (int.) (Homo sapiens, UniProt Q14191); test: WRN ADP-Glo, Target #1
Description: as §1

off target [2] = test: KRAS AlphaScreen, Target #3
Description: as §1

beta-Catenin = target: T3, beta-Catenin (Homo sapiens, UniProt P35222); test: beta-Catenin TR-FRET; details: read-out: Target #1 IC50
T3 sequence (P35222 1-781): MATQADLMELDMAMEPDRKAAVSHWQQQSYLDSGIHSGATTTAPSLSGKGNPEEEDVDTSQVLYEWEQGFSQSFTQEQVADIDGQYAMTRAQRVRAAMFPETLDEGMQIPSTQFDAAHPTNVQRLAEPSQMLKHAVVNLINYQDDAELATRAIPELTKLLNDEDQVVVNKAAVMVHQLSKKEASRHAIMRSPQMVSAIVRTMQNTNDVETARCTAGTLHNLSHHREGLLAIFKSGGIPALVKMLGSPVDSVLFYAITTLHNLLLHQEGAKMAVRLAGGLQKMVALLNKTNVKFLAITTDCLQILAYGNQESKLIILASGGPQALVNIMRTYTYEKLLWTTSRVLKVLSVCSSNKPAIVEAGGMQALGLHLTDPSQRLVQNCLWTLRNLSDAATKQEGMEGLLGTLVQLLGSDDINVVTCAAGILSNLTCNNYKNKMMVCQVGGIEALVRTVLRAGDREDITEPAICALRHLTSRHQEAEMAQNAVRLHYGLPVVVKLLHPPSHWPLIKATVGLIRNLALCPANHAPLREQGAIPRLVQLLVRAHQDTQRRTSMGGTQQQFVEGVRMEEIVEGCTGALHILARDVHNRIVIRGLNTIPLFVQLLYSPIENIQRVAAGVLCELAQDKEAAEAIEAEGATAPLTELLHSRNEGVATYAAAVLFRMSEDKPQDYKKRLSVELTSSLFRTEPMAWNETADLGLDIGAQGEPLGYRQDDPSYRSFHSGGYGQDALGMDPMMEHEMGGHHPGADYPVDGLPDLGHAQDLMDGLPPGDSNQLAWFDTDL
Description: as §1

Chain of KRAS GTP (P01116 1-169 isoform P01116-2 G12D): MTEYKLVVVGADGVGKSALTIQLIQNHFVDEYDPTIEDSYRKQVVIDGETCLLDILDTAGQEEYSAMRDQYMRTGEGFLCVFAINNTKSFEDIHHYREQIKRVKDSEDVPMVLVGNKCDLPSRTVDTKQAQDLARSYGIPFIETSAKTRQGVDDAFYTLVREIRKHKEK
Chain of WRN (int.) (Q14191 whole entry, species assumed): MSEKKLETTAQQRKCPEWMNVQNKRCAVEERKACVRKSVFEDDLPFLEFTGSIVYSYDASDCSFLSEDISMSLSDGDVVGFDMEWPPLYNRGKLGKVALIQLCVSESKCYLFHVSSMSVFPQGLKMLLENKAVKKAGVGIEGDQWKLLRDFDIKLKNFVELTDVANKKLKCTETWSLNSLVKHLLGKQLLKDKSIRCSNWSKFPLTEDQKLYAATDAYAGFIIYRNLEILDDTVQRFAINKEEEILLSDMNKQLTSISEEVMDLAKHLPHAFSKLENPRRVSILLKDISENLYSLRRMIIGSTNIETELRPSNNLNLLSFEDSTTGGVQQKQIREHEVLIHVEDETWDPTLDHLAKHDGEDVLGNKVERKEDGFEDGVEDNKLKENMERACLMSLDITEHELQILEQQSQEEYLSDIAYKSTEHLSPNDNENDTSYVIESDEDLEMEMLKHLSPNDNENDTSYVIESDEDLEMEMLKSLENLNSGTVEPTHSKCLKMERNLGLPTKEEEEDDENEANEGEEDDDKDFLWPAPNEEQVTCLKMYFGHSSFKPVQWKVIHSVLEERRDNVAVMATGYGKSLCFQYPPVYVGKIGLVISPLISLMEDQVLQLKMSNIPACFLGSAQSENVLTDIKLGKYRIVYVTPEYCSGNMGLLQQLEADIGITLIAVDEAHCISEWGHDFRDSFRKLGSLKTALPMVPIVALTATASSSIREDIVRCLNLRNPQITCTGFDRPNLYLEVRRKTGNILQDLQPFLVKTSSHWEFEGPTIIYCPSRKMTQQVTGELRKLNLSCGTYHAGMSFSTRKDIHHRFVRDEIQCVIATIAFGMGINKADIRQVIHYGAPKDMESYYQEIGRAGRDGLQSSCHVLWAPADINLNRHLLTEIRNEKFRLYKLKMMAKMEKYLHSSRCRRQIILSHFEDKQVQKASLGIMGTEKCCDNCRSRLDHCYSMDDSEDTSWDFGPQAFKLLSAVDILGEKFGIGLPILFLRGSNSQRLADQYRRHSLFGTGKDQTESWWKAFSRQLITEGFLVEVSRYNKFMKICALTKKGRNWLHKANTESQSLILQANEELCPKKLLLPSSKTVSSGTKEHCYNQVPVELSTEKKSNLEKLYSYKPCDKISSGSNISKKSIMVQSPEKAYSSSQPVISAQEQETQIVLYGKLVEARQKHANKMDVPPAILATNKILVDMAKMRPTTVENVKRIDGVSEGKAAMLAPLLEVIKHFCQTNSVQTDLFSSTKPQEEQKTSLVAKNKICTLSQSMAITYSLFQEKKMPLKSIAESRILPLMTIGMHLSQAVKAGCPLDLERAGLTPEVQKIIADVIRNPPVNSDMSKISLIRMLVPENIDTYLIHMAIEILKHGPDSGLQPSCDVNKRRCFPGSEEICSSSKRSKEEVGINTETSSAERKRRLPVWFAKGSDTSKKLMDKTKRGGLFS

IC50 (off-target) | IC50 (FKBP51) | IC50 (LSD1) | IC50 (off target (ext.)) | IC50 (SOS1) | IC50 (KRAS GTP) | IC50 (off target [1]) | IC50 (WRN (int.)) | IC50 (off target [2]) | IC50 (beta-Catenin) | Compound
> 10 µM | > 10 µM | 1 to 10 µM | > 10 µM | < 1 µM | 1 to 10 µM | > 10 µM | > 10 µM | > 10 µM | < 1 µM | [Cl][Au]([Cl])[Cl] [AuCl3, Gold(III) chloride]
> 10 µM | > 10 µM | > 10 µM | > 10 µM | > 10 µM | > 10 µM | > 10 µM | > 10 µM | > 10 µM | > 10 µM | [Cl][Cu][Cl] [CuCl2, Copper(II) chloride]
> 10 µM | > 10 µM | > 10 µM | > 10 µM | 1 to 10 µM | 1 to 10 µM | > 10 µM | > 10 µM | > 10 µM | > 10 µM | [Cl][Fe][Cl] [FeCl2, Iron(II) chloride]
> 10 µM | > 10 µM | > 10 µM | > 10 µM | 1 to 10 µM | 1 to 10 µM | > 10 µM | > 10 µM | > 10 µM | > 10 µM | [Cl][Fe]([Cl])[Cl] [FeCl3, Iron(III) chloride]
> 10 µM | > 10 µM | > 10 µM | > 10 µM | > 10 µM | 1 to 10 µM | > 10 µM | > 10 µM | > 10 µM | > 10 µM | [Cl-].[Cl-].[Mg+2] [MgCl2, Magnesium chloride]
> 10 µM | > 10 µM | > 10 µM | > 10 µM | > 10 µM | > 10 µM | > 10 µM | > 10 µM | > 10 µM | > 10 µM | [Cl][Mn][Cl] [MnCl2, Manganese(II) chloride]

Further lines, the compound ahead of its results:

Compound | IC50 (off-target) | IC50 (FKBP51) | IC50 (LSD1) | IC50 (off target (ext.)) | IC50 (SOS1) | IC50 (KRAS GTP) | IC50 (off target [1]) | IC50 (WRN (int.)) | IC50 (off target [2]) | IC50 (beta-Catenin)
CC(=O)[O-].[Ag+] [Ag (CH 3COO), Silver acetate] | > 10 µM | > 10 µM | 1 to 10 µM | > 10 µM | < 1 µM | > 10 µM | > 10 µM | > 10 µM | > 10 µM | < 1 µM
O=[N+]([O-])[O-].O=[N+]([O-])[O-].O=[N+]([O-])[O-].[Al+3] [Al(NO3)3, Aluminum nitrate] | > 10 µM | < 1 µM | 1 to 10 µM | > 10 µM | > 10 µM | > 10 µM | > 10 µM | > 10 µM | > 10 µM | > 10 µM
[Cl-].[Cl-].[Co+2] [CoCl2, Cobalt(II) chloride] | > 10 µM | > 10 µM | – | > 10 µM | > 10 µM | > 10 µM | > 10 µM | > 10 µM | > 10 µM | > 10 µM
[Cl][Ni][Cl] [NiCl2, Nickel(II) chloride] | > 10 µM | > 10 µM | 1 to 10 µM | > 10 µM | > 10 µM | > 10 µM | > 10 µM | > 10 µM | > 10 µM | > 10 µM
[Cl][Pd][Cl] [PdCl2, Palladium(II) chloride] | > 10 µM | > 10 µM | 1 to 10 µM | > 10 µM | 1 to 10 µM | < 1 µM | > 10 µM | < 1 µM | > 10 µM | > 10 µM
[Cl][Sn][Cl] [SnCl2, Tin(II) chloride] | > 10 µM | 1 to 10 µM | > 10 µM | > 10 µM | 1 to 10 µM | 1 to 10 µM | > 10 µM | > 10 µM | > 10 µM | > 10 µM
[Cl-].[Cl-].[Zn+2] [ZnCl2, Zinc(II) chloride] | > 10 µM | > 10 µM | > 10 µM | > 10 µM | > 10 µM | > 10 µM | > 10 µM | 1 to 10 µM | > 10 µM | > 10 µM
